# Source: patent US20100168228A1, “NOVEL CHEMOTHERAPEUTIC AGENTS AGAINST INFLAMMATION AND CANCER” (RELIANCE LIFE SCIENCES PVT. LTD., priority 2006, published 2010)
# Legend:
# COX-2 = COX-2 protein expression (ELISA); assay type: cell-based
# Description: FIG. 6: Effect of CAMVE on TNF or LPS induced COX-2 expression. Cells were pretreated with indicated concentrations of CAMVE for 3 h and then stimulated with either TNF (0.1 nM) or SA-LPS (100 ng/ml) for 12 h. After harvesting the treated cells, the cellular lysates were checked for COX-2 protein expression by an enzyme immunoassay as described in the “Materials and Methods”.
# Quantitative detection of Cox 2 protein expression by activated cells was done by an enzyme-linked immunosorbent sandwich assay using Zymed COX-2 ELISA kit. 1×10^7 cells were treated with different concentrations of CAMVE and stimulator and incubated at 37° C. for 12 hrs. […] The protein concentrations of the supernatants were measured by Bradford assay (Anal. Biochem. 72:248-254 (1976). 200 μg/100 μl of the protein was assayed per sample according to the kit protocol. Briefly, 100 μl of the sample and the standard were put in the pre antibody coated wells and incubated at 1 h at 37° C. After three washes 100 μl of the HRP conjugated antibody was added and incubated for 30 m is at 4° C. After washing, […] of the TMB substrate was added and incubated for 30 min at room temperature in dark. The reaction was stopped and the absorbance was read at 450 nm.
# NF-κB = NF-κB activation assay, RAW 264.7; assay type: cell-based, mouse; settings: RAW 264.7, 100 ng/ml LPS 30 min
# Description: FIG. 4: Effect of CAMVE on NF-κB activation in different cell lines. A. HeLa, MCF-7, U937, were incubated at 37° C. for 3 h with 15 μM dose of CAMVE and then stimulated with 0.1 nM TNF for 30 min. After these treatments, nuclear extracts were prepared and assayed for NF-κB using BD Transfactor ELISA method. B. RAW 264.7 cells pretreated with indicated doses of CAMVE were stimulated with 100 ng/ml LPS for 30 min and assayed for NF-κB activation.
# Cell pellet was resuspended in lysis buffer (10 mM HEPES, pH 7.9, 1.5 mM MgCl2, 10 mM KCl, 1 mM PMSF, 1 mMDTT, 0.5% NP 40, 0.1 mM EGTA and 0.1 mM EDTA) and allowed to swell on ice for 15 min, followed by centrifugation at 3300×g for 20 min. The cell pellet was resuspended in a volume of lysis buffer equal to the cell pellet volume. The cell suspension was slowly drawn down into a syringe and ejected the content in a single stroke. Disrupted cells were incubated for 15 min on ice, and the disrupted cell suspension was centrifuged at 10,000×g for 20 min at 4° C. […]
# The assay was performed by using wells coated with oligonucleotides having the consensus DNA binding sites for the specific transcription factors. […] Bound transcription factor was detected by a specific Primary Antibody. […] After addition of the substrate, the Absorbance was recorded at 655 nm.
# Jurkat cells = test: DNA fragmentation assay, Jurkat; assay type: cell-based, human; settings: 24 h
# Description: DNA fragmentation Assay: After treatment with the compounds for 24 h, cells were harvested and washed in PBS. The cell pellet was incubated with lysis buffer (10 mM Tris-HCl pH 7.5, 1 mM EDTA, 1% SDS and 80 ug/ml proteinase K) at 37° C. overnight. After extraction with phenol/chloroform, the DNA was precipitated with 100% ethanol and then dissolved in Tris-EDTA buffer (pH 8.0) with RNase A at 37° C. The DNA estimation was performed by taking absorbance at 260/280 nm, and DNA was resolved in a 1.8% agarose gel, stained with ethidium bromide and visualized under a UV transilluminator.
Structure (SMILES),COX-2 protein induction by compound alone (COX-2; CAMVE alone),"TNF or LPS induced COX-2 protein expression (COX-2; pretreated 3 h, TNF 0.1 nM or SA-LPS 100 ng/ml 12 h)",LPS induced NF-κB activation (NF-κB),DNA fragmentation (agarose gel) (Jurkat cells)
"COC(=O)c1ccc(OC(=O)/C=C/c2ccc(O)c(O)c2)c(OC)c1 [compound 1, Methyl 4-{[(2E)-3-(3,4-dihydroxyphenyl)prop-2-enoyl]oxy}-3-methoxybenzoate]",did not show any induction of COX 2 protein,decreased with increasing concentration of CAMVE treatment,inhibited NF-κB activation in murine cells,
"COc1cc([C@@H]2Oc3c(OC)cc(/C=C/C(=O)O)cc3[C@H]2C(=O)O)ccc1O [compound 27, 5-[(E)-2-carboxyvinyl]-2β-(4-hydroxy-3-methoxyphenyl)-7-methoxy-2,3-dihydro-1-benzofuran-3α-carboxylic acid]",,,,typical ladder pattern of internucleosomal fragmentation
